The NIST ThermoML archive (doi:10.1016/j.fluid.2014.11.020)
± gives the expanded uncertainty stated by the source.

Assay: activity coefficient (dimensionless); of the first substance listed, at infinite dilution; xn = mol fraction of the nth substance listed
Conditions: Liquid, Chromatography, x1 = 0

**Q.** With `CCCCCCCC` [octane] + CCCCCCCCn1cc[n+](COCCC)c1C.N#C[N-]C#N as the compound, how does the activity coefficient (323.15 K) read?
**A.** The activity coefficient was 11 ± 0.75.

**Q.** What about the activity coefficient (333.15 K) of the same compound?
**A.** The activity coefficient was 10.1 ± 0.69.

**Q.** And the activity coefficient (343.15 K)?
**A.** Its activity coefficient is 9.94 ± 0.68.

**Q.** Which results are given for `CO` [methanol] + CCCOC[n+]1ccn(Cc2ccccc2)c1.F[B-](F)(F)F?
**A.** activity coefficient (323.15 K): 1.13 ± 0.07; activity coefficient (333.15 K): 1.04 ± 0.07; activity coefficient (343.15 K): 0.97 ± 0.06

**Q.** With `C#CCCCC` [1-hexyne] + Cn1cc[n+](COCCCOC[n+]2ccn(C)c2)c1.O=S(=O)([N-]S(=O)(=O)C(F)(F)F)C(F)(F)F.O=S(=O)([N-]S(=O)(=O)C(F)(F)F)C(F)(F)F as the compound, how does the activity coefficient (323.15 K) read?
**A.** Its activity coefficient is 3.81 ± 0.26.

**Q.** And the activity coefficient (333.15 K)?
**A.** The activity coefficient was 3.68 ± 0.25.

**Q.** And the activity coefficient (343.15 K)?
**A.** Its activity coefficient is 3.4 ± 0.23.

**Q.** With `C=CCCCC` [hex-1-ene] + CCCOC[n+]1ccn(C)c1.N#C[N-]C#N as the compound, how does the activity coefficient (323.15 K) read?
**A.** Its activity coefficient is 28 ± 1.9.

**Q.** With `CCC[N+](=O)[O-]` [1-nitropropane] + Cn1cc[n+](COCCCOC[n+]2ccn(C)c2)c1.O=S(=O)([N-]S(=O)(=O)C(F)(F)F)C(F)(F)F.O=S(=O)([N-]S(=O)(=O)C(F)(F)F)C(F)(F)F as the compound, how does the activity coefficient (323.15 K) read?
**A.** The activity coefficient was 0.54 ± 0.04.

**Q.** What about the activity coefficient (333.15 K) of the same compound?
**A.** Its activity coefficient is 0.54 ± 0.04.

**Q.** What about the activity coefficient (343.15 K) of the same compound?
**A.** The activity coefficient was 0.53 ± 0.04.

**Q.** Which activity coefficient (323.15 K) does the source give for `C#CCCCC` [1-hexyne] + CCCOC[n+]1ccn(Cc2ccccc2)c1.O=S(=O)([N-]S(=O)(=O)C(F)(F)F)C(F)(F)F here?
**A.** The activity coefficient was 2.14 ± 0.15.

**Q.** And the activity coefficient (333.15 K)?
**A.** Its activity coefficient is 2.35 ± 0.16.

**Q.** For `CCO` [ethanol] + Cn1cc[n+](COCCCOC[n+]2ccn(C)c2)c1.N#C[N-]C#N.N#C[N-]C#N, which activity coefficient (323.15 K) is on record?
**A.** Its activity coefficient is 0.78 ± 0.05.

**Q.** And the activity coefficient (333.15 K)?
**A.** The activity coefficient was 0.76 ± 0.05.

**Q.** What about the activity coefficient (343.15 K) of the same compound?
**A.** The activity coefficient was 0.72 ± 0.05.

**Q.** Which activity coefficient (323.15 K) does the source give for `Cc1ccccc1C` [1,2-dimethylbenzene] + CCCCCCCCn1cc[n+](COCCCOC[n+]2ccn(CCCCCCCC)c2C)c1C.N#C[N-]C#N.N#C[N-]C#N here?
**A.** The activity coefficient was 1.16 ± 0.07.

**Q.** What about the activity coefficient (333.15 K) of the same compound?
**A.** The activity coefficient was 1.18 ± 0.08.

**Q.** And the activity coefficient (343.15 K)?
**A.** The activity coefficient was 1.22 ± 0.08.

**Q.** What does the source list for `CCCCCC` [hexane] + CCCCCCCCn1cc[n+](COCCCOC[n+]2ccn(CCCCCCCC)c2C)c1C.O=S(=O)([N-]S(=O)(=O)C(F)(F)F)C(F)(F)F.O=S(=O)([N-]S(=O)(=O)C(F)(F)F)C(F)(F)F?
**A.** activity coefficient (323.15 K): 3.74 ± 0.25; activity coefficient (333.15 K): 3.59 ± 0.24; activity coefficient (343.15 K): 3.45 ± 0.23

**Q.** For `CCCC(C)=O` [pentan-2-one] + Cn1cc[n+](COCCCOC[n+]2ccn(C)c2)c1.N#C[N-]C#N.N#C[N-]C#N, which activity coefficient (323.15 K) is on record?
**A.** The activity coefficient was 3.5 ± 0.24.

**Q.** And the activity coefficient (333.15 K)?
**A.** Its activity coefficient is 3.5 ± 0.24.

**Q.** What about the activity coefficient (343.15 K) of the same compound?
**A.** The activity coefficient was 3.49 ± 0.24.

**Q.** Which results are given for `CC(C)CC(C)(C)C` [2,2,4-trimethylpentane] + CN(C)c1cc[n+](COCCCOC[n+]2ccc(N(C)C)cc2)cc1.O=S(=O)([N-]S(=O)(=O)C(F)(F)F)C(F)(F)F.O=S(=O)([N-]S(=O)(=O)C(F)(F)F)C(F)(F)F?
**A.** activity coefficient (323.15 K): 31.7 ± 2.2; activity coefficient (333.15 K): 25.2 ± 1.7; activity coefficient (343.15 K): 25.4 ± 1.7

**Q.** What does the source list for `C[N+](=O)[O-]` [nitromethane] + CCCOC[n+]1ccc(N(C)C)cc1.O=S(=O)([N-]S(=O)(=O)C(F)(F)F)C(F)(F)F?
**A.** activity coefficient (323.15 K): 0.54 ± 0.04; activity coefficient (333.15 K): 0.55 ± 0.04; activity coefficient (343.15 K): 0.54 ± 0.04

**Q.** Which results are given for `CCCCO` [butan-1-ol] + CCCOC[n+]1ccc(N(C)C)cc1.O=S(=O)([N-]S(=O)(=O)C(F)(F)F)C(F)(F)F?
**A.** activity coefficient (323.15 K): 2.25 ± 0.15; activity coefficient (333.15 K): 2.04 ± 0.14; activity coefficient (343.15 K): 1.85 ± 0.12

**Q.** With `CCCCCCCCCCCC` [dodecane] + Cn1cc[n+](COCCCOC[n+]2ccn(C)c2)c1.N#C[N-]C#N.N#C[N-]C#N as the compound, how does the activity coefficient (323.15 K) read?
**A.** Its activity coefficient is 1150 ± 79.

**Q.** What about the activity coefficient (333.15 K) of the same compound?
**A.** The activity coefficient was 962 ± 66.

**Q.** What about the activity coefficient (343.15 K) of the same compound?
**A.** The activity coefficient was 932 ± 64.

**Q.** For `CCc1ccccc1` [ethylbenzene] + Cn1cc[n+](COCCCOC[n+]2ccn(C)c2)c1.O=S(=O)([N-]S(=O)(=O)C(F)(F)F)C(F)(F)F.O=S(=O)([N-]S(=O)(=O)C(F)(F)F)C(F)(F)F, which activity coefficient (323.15 K) is on record?
**A.** Its activity coefficient is 2.41 ± 0.16.

**Q.** And the activity coefficient (333.15 K)?
**A.** Its activity coefficient is 2.44 ± 0.17.

**Q.** And the activity coefficient (343.15 K)?
**A.** The activity coefficient was 2.38 ± 0.16.

**Q.** For `CCCCCCCCCC` [decane] + N#C[N-]C#N.N#C[N-]C#N.c1ccc(Cn2cc[n+](COCCCOC[n+]3ccn(Cc4ccccc4)c3)c2)cc1, which activity coefficient (323.15 K) is on record?
**A.** The activity coefficient was 420 ± 29.

**Q.** And the activity coefficient (333.15 K)?
**A.** Its activity coefficient is 371 ± 25.

**Q.** What about the activity coefficient (343.15 K) of the same compound?
**A.** The activity coefficient was 321 ± 22.

**Q.** For `CCN(CC)CC` [triethylamine] + CCCCCCCCn1cc[n+](COCCC)c1C.O=S(=O)([N-]S(=O)(=O)C(F)(F)F)C(F)(F)F, which activity coefficient (323.15 K) is on record?
**A.** Its activity coefficient is 1.2 ± 0.08.

**Q.** With `c1ccncc1` [pyridine] + Cn1cc[n+](COCCCOC[n+]2ccn(C)c2)c1.N#C[N-]C#N.N#C[N-]C#N as the compound, how does the activity coefficient (323.15 K) read?
**A.** The activity coefficient was 1 ± 0.06.

**Q.** And the activity coefficient (333.15 K)?
**A.** Its activity coefficient is 1.01 ± 0.06.

**Q.** What about the activity coefficient (343.15 K) of the same compound?
**A.** The activity coefficient was 1.04 ± 0.07.

**Q.** With `C=CCCCC` [hex-1-ene] + CCCOC[n+]1ccc(N(C)C)cc1.O=S(=O)([N-]S(=O)(=O)C(F)(F)F)C(F)(F)F as the compound, how does the activity coefficient (323.15 K) read?
**A.** The activity coefficient was 6.62 ± 0.45.

**Q.** And the activity coefficient (333.15 K)?
**A.** The activity coefficient was 6.79 ± 0.46.

**Q.** What about the activity coefficient (343.15 K) of the same compound?
**A.** Its activity coefficient is 5.24 ± 0.36.

**Q.** With `CCC(=O)CC` [pentan-3-one] + CCCOC[n+]1ccn(Cc2ccccc2)c1.N#C[N-]C#N as the compound, how does the activity coefficient (323.15 K) read?
**A.** Its activity coefficient is 1.33 ± 0.09.

**Q.** What about the activity coefficient (333.15 K) of the same compound?
**A.** Its activity coefficient is 1.4 ± 0.09.

**Q.** What about the activity coefficient (343.15 K) of the same compound?
**A.** Its activity coefficient is 1.43 ± 0.09.

**Q.** What does the source list for `CCCCCCCCCCC` [undecane] + CCCCCCCCn1cc[n+](COCCC)c1C.N#C[N-]C#N?
**A.** activity coefficient (323.15 K): 20.6 ± 1.4; activity coefficient (333.15 K): 19.6 ± 1.3; activity coefficient (343.15 K): 18.2 ± 1.2

**Q.** With `CO` [methanol] + CCCCCCCCn1cc[n+](COCCC)c1C.N#C[N-]C#N as the compound, how does the activity coefficient (323.15 K) read?
**A.** Its activity coefficient is 0.32 ± 0.03.

**Q.** What about the activity coefficient (333.15 K) of the same compound?
**A.** The activity coefficient was 0.29 ± 0.03.

**Q.** And the activity coefficient (343.15 K)?
**A.** The activity coefficient was 0.28 ± 0.03.
